In patent US20220137057A1 (priority 2019, published 2022):
Read-outs that look alike come from different tables or passages of the source.

Tests used:
Lemna paucicostata = details: in vivo
[1] = tested on: Pyricularia oryzae, Strain J1; type: cell-based; details: for Fractional contribution of metabolite RI 3507: control 0.09 to 0.12; for Position of enzymatic inhibition in the metabolic sequence (breaking point): from increase/decrease of label incorporation, FIG. 3; for Non-polar metabolites changed (number of metabolite MIDs) / Polar metabolites changed (number of metabolite MIDs): treatment vs control; for Non-polar metabolites changed (number of metabolite MIDs): threshold 2% M0 difference, non-polar phase; for Polar metabolites changed (number of metabolite MIDs): threshold 5% M0 difference, polar phase
ergosterol biosynthesis = test: Metabolomics (metabolite profiling) of fenpropidin treatment, FIG. 5; type: cell-based; details: samples 0.5, 2, 6 and 48 hours after treatment

Structure (SMILES) | Change in fractional contribution of differentially labeled metabolites (Lemna paucicostata) | Mode-of-action indicated by MIAMI (Lemna paucicostata) | Mode-of-action pinpointed by MIAMI [1] | Fractional contribution of metabolite RI 3507 ([1]; 2 hours after treatment) | Fractional contribution of metabolite RI 3507 ([1]; 6 hours after treatment) | Position of enzymatic inhibition in the metabolic sequence (breaking point) [1] | Non-polar metabolites changed (number of metabolite MIDs) [1] | Polar metabolites changed (number of metabolite MIDs) [1] | Change in ergosterol (metabolomics, fold-change to control) (ergosterol biosynthesis)
CC(C)C1(C)N=C(c2ncccc2C(=O)O)NC1=O (stereo not drawn) [herbicide four, Imazapyr] | increase in fractional contribution, except for valine | mode-of-action in the valine biosynthesis pathway |  |  |  |  |  |  | 
Fc1ccc([C@]2(Cn3cncn3)O[C@H]2c2ccccc2Cl)cc1 (racemic) [fung 2, Epoxiconazole] |  |  | a hand full of potential targets in steroid biosynthesis | 0.17 | 0.37 | between RI 3569 and RI 3309 | 34 | 26 | 
CC(Cc1ccc(C(C)(C)C)cc1)CN1CCCCC1 (stereo not drawn) [fung 1, Fenpropidin] |  |  | a hand full of potential targets in steroid biosynthesis | 0.16 | 0.18 | between metabolites RI 3507 and RI 3309 | 34 | 19 | reductions in ergosterol, however not significantly after 6 hours
